Measured values reported in US12187696B2, “Urea motif containing compounds and derivatives thereof as antibacterial drugs” (Technische Universität München, priority 2016, dated 2025).
≈ marks a conversion by molar mass, not a printed value.

Experiments:
[1] = system: A549, HeLa, HepG2 and NIH/3T3 cells; experiment: Cytotoxicity assay (MTT); format: cell-based, human; details: 24 h incubation, various cell lines
Method: The MTT assay was performed in 96 well plates. A549, HeLa and HepG2 cells were seeded with 4000 cells/well, whereas NIH/3T3 cells were seeded with 2000 cells/well. Cells were grown to 30-40% confluence at 37° C. and 5% CO2 over a time span of 24 h. The medium was removed and 100 μL medium/well containing varying concentrations of the respective compound and a final DMSO concentration of 0.1% were added to the cells in triplicates and incubated at 37° C. and 5% CO2 for 24 h. 20 μL Thiazolyl blue tetrazolium bromide (5 mg/mL in PBS, Sigma Aldrich) were added to the cells and incubated at 37° C. and 5% CO2 for 4 h until complete consumption was observed. After removal of the medium, the resulting formazan was dissolved in 200 μL DMSO. Optical density was measured at 570 nm (562 nm) and background subtracted at 630 nm (620 nm) by a TECAN Infinite M200 Pro.

[2] = system: Staphylococcus aureus DSM18827; experiment: Minimal inhibitory concentration (MIC) assay; format: cell-based; details: B medium
S. aureus = experiment: Murine bloodstream infection model; format: in vivo; details: S. aureus-infected mice, 20 mg/kg, compared to vehicle control
Method: Bacterial loads in the heart (left) and liver (right) of S. aureus-infected mice treated with 20 mg/kg of PK/[…]-1-150 (squares) or vehicle alone (circles). Each symbol represents an individual mouse. Compilation data from three independent experiments are presented. N=14 for vehicle and PK/[…]-1-150. Horizontal lines represent the mean values. **, p<0.01.

[3] = system: Staphylococcus aureus VA417350; experiment: Minimal inhibitory concentration (MIC) assay; format: cell-based; details: Staphylococcus aureus VA417350 (clinical isolate); B medium
[4] = system: Staphylococcus aureus VA402525; experiment: Minimal inhibitory concentration (MIC) assay; format: cell-based; details: Staphylococcus aureus VA402525 (clinical isolate); B medium
MRSA ATCC 33591 = experiment: Neutropenic murine thigh model; format: in vivo, S. aureus; details: 20 mg/kg orally 30 min, 4 and 8 h after inoculation; vs sham-treated mice
Method: PK/X17-1-150 (20 mg/kg) and the corresponding vehicle were administered orally after 30 min, 4 and 8 h after bacterial inoculation, whereas levofloxacin (5 mg/kg) and the corresponding vehicle were administered intraperitoneally after 2, 6 and 10 h after bacterial inoculation. N=6 for vehicle i.p., levofloxacin i.p. and for PK/X17-1-150; n=5 for vehicle p.o. Data are expressed as mean values±SD. **, p<0.01; ***, p<0.001.

Plasma stability assay = format: in vitro ADME, mouse; details: 10 μM, 37° C., up to 6 h (360 min), LC-MS
Method: The in vitro stability was tested by a LC-MS based method. Mouse plasma was purchased from biowest (mouse plasma w/lithium heparin, sterile filtered S2162-010) and used as a 1:1 dilution with potassium phosphate buffer (0.1 M, pH 7.4). Final assay concentration of DMSO from compound stocks was 1%. AV1, a β-lactone with known low plasma stability, was used as positive control at a concentration of 50 μM. The compound stability test in plasma was initiated by the addition of 10 μM compound of interest (50 μM in the case of AV1) to 250 μL of diluted mouse plasma at 37° C. Directly after compound addition the reaction mixture was shortly mixed by vortexing and the first sample of 25 μL was withdrawn (time point 0 min). Every sample was quenched immediately by the addition 30 μL of pre-chilled acetonitrile. The reaction mixture was incubated at 37° C. with gentle shaking at 600 rpm. At certain time points (5, 10, 20, 30, 60, 120, 240, 360 min) additional samples (25 μL) were taken for every test compound, quenched as described and stored at −20° C. […] Quantitative LC-MS analysis was performed by LCQ-Fleet Ion Trap Mass Spectrometer equipped with an APCI ion source and a DionexHPLC system using a Waters Xbridge BEH130 C18 column (5 μM 4.6×100 mm). […] Plasma stability was determined in three independent experiments.

[5] = system: Staphylococcus aureus VA409044; experiment: Minimal inhibitory concentration (MIC) assay; format: cell-based; details: Staphylococcus aureus VA409044 (clinical isolate); B medium
[6] = system: S. aureus DSM 4910 (NCTC 8325) biofilm; experiment: Minimum biofilm eradication concentration (MBEC) assay; format: cell-based
Method: To each well of a flat-bottomed 96-well plate (BD Biosciences, BD 351172) 200 μL of overnight culture of bacteria diluted 1:100 in media is added. Plates are incubated for 24 hours at 37° C. to establish biofilms. After 24 hours, the wells are carefully emptied by inverting the plate and gently shaking. A pre-mixed solution of media and compound stock solution is added to each well and plates are incubated at 37° C. […] 100 μL of supernatant from each well are transferred to a fresh 96-well flat bottomed plate and the OD at 595 nm is measured using a plate reader (POLARstar Omega, BMG Labtech). Concentrations of compound yielding a regrown OD of less than 0.1 correspond to the MBEC. Six replicates are completed for each concentration of compound as well as positive and negative controls. […] DMSO was used as negative control compound, Oxacillin was used as positive control compound. Levels of crystal violet retained were measured spectrophotometrically at an OD of 595 nm. Concentrations of compound yielding a regrown OD of less than 0.1 correspond to the MBEC. Six replicates are completed for each concentration of compound as well as controls. […] Levels of crystal violet retained were measured spectrophotometrically at an OD of 595 nm. […]

Row | SMILES | cytotoxicity (MTT) [1] | MIC [2] [µM] | reduction of bacterial load in heart (S. aureus) [log cfu] | reduction of bacterial load in liver (S. aureus) [log cfu] | MIC [3] [µM] | MIC [4] [µM] | thigh bacterial load reduction (MRSA ATCC 33591) [log10 cfu/g thigh] | stability in mouse plasma (Plasma stability assay) | MIC [5] [µM] | biofilm eradication effect ([6]; S. aureus DSM 4910, after 20 h of compound treatment) | biofilm eradication effect ([6]; S. aureus DSM 4910, after 70 h of compound treatment)
1 | O=C(Nc1ccc2c(c1)OC(F)(F)O2)Nc1ccc(Cl)c(C(F)(F)F)c1 [Example 4, 1-(4-Chloro-3-(trifluoromethyl)phenyl)-3-(2,2-difluorobenzo[d][1,3]dioxol-5-yl)urea] | at concentrations higher compared to the antibacterial MICs | 0.3 (≈ 0.118 µg/mL) | 2 | 2 | 0.3 (≈ 0.118 µg/mL) | 0.3 (≈ 0.118 µg/mL) | 1 | excellent stability in plasma for several hours | 0.3 (≈ 0.118 µg/mL) | strongest effect | most potent effects
2 | CNC(=O)c1cc(Oc2ccc(NC(=O)Nc3ccc(Cl)c(C(F)(F)F)c3)cc2)ccn1 [Sorafenib, reference compound] | – | 3 (≈ 1.39 µg/mL) | – | – | 5 (≈ 2.32 µg/mL) | 5 (≈ 2.32 µg/mL) | – | excellent stability in plasma for several hours | 3 (≈ 1.39 µg/mL) | – | –
